Measured values published in patent US20230045421A1 (priority 2018, published 2023).
Like-named read-outs stand apart in the source and are kept apart here.

Tested on: HBV rcDNA
Assay: HepDE19 assay with bDNA quantitation of HBV rcDNA
Type: cell-based, hepatitis B virus
Outline: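 HepDE19 cells (HepG2-derived, Tet-regulated HBV replication) were deprived of tetracycline and then exposed to compounds for 7 days at 37 °C in 0.5% DMSO, 8-point titration from 25 μM. rcDNA was quantified by bDNA and EC50/EC90 came from 4-parameter fits. CC50 was measured by CellTiter-Glo ATP content on replicate plates after 4 days.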

[1] = HepDE19 assay, inhibition of formation of rcDNA, read-out: DE-19bDNA EC50
[2] = Hepatitis B virus, HepDE19, HepDE19 assay, inhibition of formation of rcDNA, read-out: DE-19bDNA EC50
[3] = read-out: DE-19bDNA EC50, HepDE19 assay, inhibition of formation of rcDNA
[4] = HepDE19 assay, inhibition of formation of relaxed circular DNA (rcDNA), bDNA quantitation, read-out: DE-19bDNA EC50

For `CC(c1c[nH]c(=O)c2ccccc12)N(CC1CCN(S(C)(=O)=O)CC1)C(=O)Nc1ccc(F)c(Cl)c1` (single isomer, unassigned) [Compound 204, 3-(3-Chloro-4-fluorophenyl)-1-((1-(methylsulfonyl)piperidin-4-yl)methyl)-1-(1-(1-oxo-1,2-dihydroisoquinolin-4-yl)ethyl)urea], the EC50 [1] was 0.06 µM.
`CCCN(C(=O)Nc1ccc(F)c(C)c1)[C@H](C)c1c[nH]c(=O)c2ccccc12` [Compound 43, (R)-3-(4-Fluoro-3-methylphenyl)-1-(1-(1-oxo-1,2-dihydroisoquinolin-4-yl)ethyl)-1-propylurea] was tested, and the EC50 [2] was 0.01 µM.
In the case of `CCC(c1c[nH]c(=O)c2ccccc12)N(CC)C(=O)Nc1ccc(F)c(Cl)c1` (single isomer, unassigned) [Compound 37, 3-(3-chloro-4-fluorophenyl)-1-ethyl-1-(1-(1-oxo-1,2-dihydroisoquinolin-4-yl)propyl)urea], the EC50 [3] is reported as 0.26 µM.
`CC(c1c[nH]c(=O)c2ccccc12)N(CC1CC1)C(=O)Nc1ccc(F)c(Cl)c1` (single isomer, unassigned) [Compound 86, 3-(3-Chloro-4-fluorophenyl)-1-(cyclopropylmethyl)-1-(1-(1-oxo-1,2-dihydroisoquinolin-4-yl)ethyl)urea] gave an EC50 [1] of 0.02 µM.
`CC(c1c[nH]c(=O)c2ccccc12)N(Cc1cccnc1)C(=O)Nc1ccc(F)c(Cl)c1` (single isomer, unassigned) [Compound 307, 3-(3-Chloro-4-fluorophenyl)-1-(1-(1-oxo-1,2-dihydroisoquinolin-4-yl)ethyl)-1-(pyridin-3-ylmethyl) urea] gave an EC50 [4] of 20 µM.
`COc1ccc2c(=O)[nH]cc(C(C)N(C)C(=O)Nc3ccc(F)c(Cl)c3)c2c1` (single isomer, unassigned) [Compound 179, 3-(3-Chloro-4-fluorophenyl)-1-(1-(6-methoxy-1-oxo-1,2-dihydroisoquinolin-4-yl)ethyl)-1-methylurea] was tested, and the EC50 [1] was 7.3 µM.
With `CC(c1c[nH]c(=O)c2ccccc12)N(C[C@H](C)O)C(=O)Nc1ccc(F)c(Cl)c1` (single isomer, unassigned) [Compound 217] the EC50 [1] was 8.2 µM.
Compound `CCOCCN(C(=O)Nc1ccc(F)c(Cl)c1)C(C)c1c[nH]c(=O)c2ccccc12` (single isomer, unassigned) [Compound 110, 3-(3-Chloro-4-fluorophenyl)-1-(2-ethoxyethyl)-1-(1-(1-oxo-1,2-dihydroisoquinolin-4-yl)ethyl)urea] has an EC50 [3] of 0.17 µM.
For `Cc1cc(NC(=O)N(C)C(C)c2c(C)[nH]c(=O)c3ccccc23)ccc1F` (racemic) [Compound 230, 3-(4-Fluoro-3-methylphenyl)-1-methyl-1-(1-(3-methyl-1-oxo-1,2-dihydroisoquinolin-4-yl)ethyl)urea], the EC50 [2] was 0.12 µM.
For `CC(c1c[nH]c(=O)c2c(F)c(F)ccc12)N(C)C(=O)N[C@@H](C)c1ccccc1` (single isomer, unassigned) [Compound 487], the EC50 (Hepatitis B virus, HepDE19, read-out: DE-19bDNA EC50 (μM), HepDE19 assay, inhibition of formation of relaxed circular DNA (rcDNA), bDNA quantitation) was 23 µM.
`CC(C)CN(C(=O)Nc1ccc(F)cc1)C(C)c1cn(CC(F)(F)F)c(=O)c2ccccc12` (racemic) [Compound 235, 3-(4-Fluorophenyl)-1-isobutyl-1-(1-(1-oxo-2-(2,2,2-trifluoroethyl)-1,2-dihydroisoquinolin-4-yl)ethyl)urea] showed an EC50 [2] of 0.21 µM.
For `CC(c1c[nH]c(=O)c2cc(F)c(F)cc12)N(C)C(=O)NCc1cc(F)c(F)c(F)c1` (single isomer, unassigned) [Compound 482, 1-(1-(6,7-Difluoro-1-oxo-1,2-dihydroisoquinolin-4-yl)ethyl)-1-methyl-3-(3,4,5-trifluorobenzyl)urea], the EC50 [4] was 11 µM.
Compound `CC(c1c[nH]c(=O)c2c(F)c(F)ccc12)N(C)C(=O)Nc1ccc(F)c(Cl)c1` (single isomer, unassigned) [Compound 330, 3-(3-Chloro-4-fluorophenyl)-1-(1-(7,8-difluoro-1-oxo-1,2-dihydroisoquinolin-4-yl)ethyl)-1-methylurea] has an EC50 [4] of 0.99 µM.
With `CC(c1cnc(S(C)(=O)=O)c2ccccc12)N(C)C(=O)Nc1ccc(F)c(Cl)c1` (single isomer, unassigned) [Compound 315, 3-(3-Chloro-4-fluorophenyl)-1-methyl-1-(1-(1-(methylsulfonyl)isoquinolin-4-yl)ethyl)urea] the EC50 [4] was 0.8 µM.
Work on `CC(c1c[nH]c(=O)c2c(F)c(F)ccc12)N(CCCO)C(=O)Nc1ccc(F)c(Cl)c1` (single isomer, unassigned) [Compound 335, 3-(3-Chloro-4-fluorophenyl)-1-(1-(7,8-difluoro-1-oxo-1,2-dihydroisoquinolin-4-yl)ethyl)-1-(3-hydroxypropyl)urea] yielded an EC50 [4] of 0.006 µM.
`COc1ncc(CN(C)C(=O)Nc2ccc(F)c(C)c2)c2ccccc12` [Compound 3, 3-(4-Fluoro-3-methylphenyl)-1-((1-methoxyisoquinolin-4-yl)methyl)-1-methylurea] gave an EC50 [2] of 1.1 µM.
`CC(c1c[nH]c(=O)c2ccccc12)N(C(=O)Nc1ccc(F)c(Cl)c1)C1CC1` (single isomer, unassigned) [Compound 68, 3-(3-Chloro-4-fluorophenyl)-1-cyclopropyl-1-(1-(1-oxo-1,2-dihydroisoquinolin-4-yl)ethyl)urea] was tested, and the EC50 [1] was 0.06 µM.
For `COc1ncc(CN(Cc2ccccc2)C(=O)Nc2ccc(F)c(Cl)c2)c2ccccc12` [Compound 48, 1-Benzyl-3-(3-chloro-4-fluorophenyl)-1-((1-methoxyisoquinolin-4-yl)methyl)urea], the EC50 [2] was 2.1 µM.
`CC(c1c[nH]c(=O)c2cc(Cl)ccc12)N(C)C(=O)Nc1ccc(F)c(Cl)c1` (racemic) [Compound 271, 1-(1-(7-Chloro-1-oxo-1,2-dihydroisoquinolin-4-yl)ethyl)-3-(3-chloro-4-fluorophenyl)-1-methylurea] was tested, and the EC50 [2] was 0.2 µM.
Compound `CC(c1cnc(-n2ccnn2)c2ccccc12)N(C)C(=O)Nc1ccc(F)c(Cl)c1` (racemic) [Compound 354, 1-(1-(1-(1H-1,2,3-triazol-1-yl)isoquinolin-4-yl)ethyl)-3-(3-chloro-4-fluorophenyl)-1-methylurea] has an EC50 (Hepatitis B virus, HepDE19, HepDE19 assay, inhibition of formation of relaxed circular DNA (rcDNA), bDNA quantitation, read-out: DE-19bDNA EC50) of 0.13 µM.
With `CC(c1c[nH]c(=O)c2ccccc12)N(CC[C@@H](C)O)C(=O)Nc1ccc(F)c(Cl)c1` (single isomer, unassigned) [Compound 211] the EC50 [1] was 2.7 µM.
`CC(c1cnc(NCc2nc[nH]n2)c2ccccc12)N(C)C(=O)Nc1ccc(F)c(Cl)c1` (single isomer, unassigned) [Compound 247, 1-(1-(1-(((1H-1,2,4-Triazol-3-yl)methyl)amino)isoquinolin-4-yl)ethyl)-3-(3-chloro-4-fluorophenyl)-1-methylurea] was tested, and the EC50 [1] was 0.39 µM.
Compound `CC(c1c[nH]c(=O)c2c(F)c(F)ccc12)N(C)C(=O)Nc1ccc(F)c(F)c1` (single isomer, unassigned) [Compound 435, 1-(1-(7,8-Difluoro-1-oxo-1,2-dihydroisoquinolin-4-yl)ethyl)-3-(3,4-difluorophenyl)-1-methylurea] has an EC50 [4] of 0.24 µM.
For `CCN(C(=O)Nc1ccc(F)c(Cl)c1)C(C)c1c[nH]c(=O)c2cnccc12` (racemic) [Compound 102, 3-(3-Chloro-4-fluorophenyl)-1-ethyl-1-(1-(1-oxo-1,2-dihydro-2,7-naphthyridin-4-yl)ethyl)urea], the EC50 [2] was 0.1 µM.
In the case of `CC(C)CN(C(=O)Nc1ccc(F)c(Cl)c1)C(C)c1c[nH]c(=O)c2c(F)c(F)ccc12` (single isomer, unassigned) [Compound 338, 3-(3-Chloro-4-fluorophenyl)-1-(1-(7,8-difluoro-1-oxo-1,2-dihydroisoquinolin-4-yl)ethyl)-1-isobutylurea], the EC50 [4] is reported as 0.8 µM.
Compound `CC(c1c[nH]c(=O)c2cc(F)c(F)cc12)N(C)C(=O)Nc1ccnc(Cl)c1` (single isomer, unassigned) [Compound 418, 3-(2-Chloropyridin-4-yl)-1-(1-(6,7-difluoro-1-oxo-1,2-dihydroisoquinolin-4-yl)ethyl)-1-methylurea] has an EC50 [4] of 10 µM.
`CC(c1cnc(NCCO)c2ccccc12)N(C)C(=O)Nc1ccc(F)c(Cl)c1` (single isomer, unassigned) [Compound 243, 3-(3-Chloro-4-fluorophenyl)-1-(1-(1-((2-hydroxyethyl)amino)isoquinolin-4-yl)ethyl)-1-methylurea] gave an EC50 [1] of 9.9 µM.
Compound `CCN(C(=O)Nc1ccc(F)cc1)C(C)c1c[nH]c(=O)c2c(F)c(F)ccc12` (single isomer, unassigned) [Compound 464, 1-(1-(7,8-Difluoro-1-oxo-1,2-dihydroisoquinolin-4-yl)ethyl)-1-ethyl-3-(4-fluorophenyl)urea] has an EC50 [4] of 2.9 µM.
For `C[C@H](c1c[nH]c(=O)c2ccccc12)N(C)C(=O)Nc1cc(F)c(F)c(F)c1` [Compound 91, (R)-1-Methyl-1-(1-(1-oxo-1,2-dihydroisoquinolin-4-yl)ethyl)-3-(3,4,5-trifluorophenyl)urea], the EC50 [2] was 0.16 µM.
Work on `CCOc1ncc(CN(CC)C(=O)Nc2ccc(F)c(Cl)c2)c2ccccc12` [Compound 17, 3-(3-chloro-4-fluorophenyl)-1-((1-ethoxyisoquinolin-4-yl)methyl)-1-ethylurea] yielded an EC50 [2] of 1.6 µM.
With `CC(c1c[nH]c(=O)c2c(F)c(F)ccc12)N(C)C(=O)Nc1cc(Cl)c(F)c(Cl)c1` (single isomer, unassigned) [Compound 452, 3-(3,5-Dichloro-4-fluorophenyl)-1-(1-(7,8-difluoro-1-oxo-1,2-dihydroisoquinolin-4-yl)ethyl)-1-methylurea] the EC50 [4] was 0.047 µM.
`CCCn1cc(C(C)N(C)C(=O)Nc2ccc(F)c(Cl)c2)c2ccccc2c1=O` (single isomer, unassigned) [Compound 186, 3-(3-Chloro-4-fluorophenyl)-1-methyl-1-(1-(1-oxo-2-propyl-1,2-dihydroisoquinolin-4-yl)ethyl)urea] gave an EC50 [1] of 8.4 µM.
